Results taken from patent US20090176696A1, “Methods And Compositions For Modulating An Immune Response” (priority 2006, published 2009).
Entries after “also recorded” stand apart in the source; their conditions may differ.

Legend:
[1] = system: Experimental autoimmune encephalomyelitis (EAE); assay: Experimental autoimmune encephalomyelitis (EAE) induced with MOG peptide 35-55 in CFA; format: in vivo, C57BL/6 mice
Description: EAE was induced in C57BL/6 mice by subcutaneous immunisation with 150 μg MOG peptide 35-55 emulsified in CFA supplemented with 5 mg/ml of killed Mycobacterium tuberculosis. Mice were injected intraperitoneally (i.p) with 500 ng of pertussis toxin (PT) on days 0 and 2. Mice were injected with either PBS or TCT (10 μg/mouse) s.c in the flank on day 1 post EAE induction and every 3-4 days thereafter (FIG. 15). Mice were observed daily for signs of clinical disease. Disease severity was recorded as follows: grade 0, normal; grade 1, limp tail; grade 2, wobbly gait; grade 3, hind limb weakness; grade 4, hind limb paralysis and grade 5, tetraparalysis/death.

[2] = system: BMDC with CD4+ T cells from OVA TCR transgenic mice; assay: TCT pre-treated BMDC cultured with OVA and CD4+ T cells from OVA TCR Tg mice; cytokines by ELISA; format: cell-based; details: DC pre-treated with TCT 10 μg/ml for 2 hours; supernatant after 4 days
Description: Dendritic cells act as antigen presenting cells and also serve to direct the induction of distinct T cell responses. Therefore, we examined the influence of TCT on dendritic cells and their ability to promote T cell responses in vitro. Bone marrow-derived dendritic cells DC (BMDC) were cultured with CD4^+ T cells (4×10^5) from OVA T cell receptor (TCR) transgenic (Tg) mice. BMDC were pre-treated with TCT (10 μg/ml) or medium only for 2 hours prior to the addition of antigen (OVA 0.2-5 μg/ml) and CD4^+ T cells purified from the spleens of OVA TCR Tg mice. OVA-specific cytokine production was measured in supernatant taken after 4 days by ELISA.

[3] = system: Bone marrow-derived dendritic cells (BMDCs); assay: Cytokine production (ELISA) by BMDCs pre-treated with TCT, then stimulated with TLR agonists; format: cell-based, BALB/c mice
Description: Bone marrow-derived dendritic cells (BMDCs) from BALB/c mice were pre-treated with TCT (10 μg/ml) for 1, 6 and 12 hours before being stimulated with a range of concentrations of the TLR2 agonist, Pam-3Csk (10, 100, 1000 ng/ml), the TLR4 agonist, B. pertussis LPS (100, 1000, 10,000 pg/ml) and the TLR9 agonist, CpG (10, 100, 1000 ng/ml) for a further 12 hours. The concentration range chosen for each TLR agonist was based on preliminary experiments. Cytokine and chemokine concentrations were evaluated by ELISA.

[4] = system: hamster tracheal epithelial (HTE) cells; details: isolated cultured HTE cells; cited from earlier work
[5] = system: KLH-specific T cell and antibody responses; assay: TCT injection 6 hours before immunisation with KLH or KLH with alum; ex vivo spleen and lymph node responses and antibody titres; format: in vivo, BALB/c mice
Description: Cohorts of BALB/c mice were injected sub-cutaneously (s.c.) into the flank with PBS or TCT alone, and then immunised sub-cutaneously with KLH or KLH with alum 6 hours later. The adaptive immune response was assessed 14 days later by stimulating spleen and local inguinal lymph node cells with antigen ex vivo. Spleen (FIG. 6A) and lymph node (FIG. 6B) cell suspensions were cultured in the presence of various concentrations of KLH (2, 10, 50 μg/ml) and PMA/anti-CD3 or medium were used as positive and negative controls respectively. Supernatants were collected 72 hours later, fresh medium was added to the wells and cells were incubated overnight. At day 4, 2 μCi of ^3H thymidine was added to each well. Plates were incubated for a further 6 hours, and ^3H incorporation was determined.
In addition, supernatants were tested for IFN-gamma, IL-10, IL-4 and IL-5 by ELISA (spleen—FIG. 7 and lymph nodes—FIG. 8). KLH-specific antibody titres were also determined by ELISA (FIG. 9).

[6] = system: Graft-versus-host disease (GVHD); assay: Parent-to-F1 hybrid graft-versus-host disease (GVHD) model; format: in vivo, BALB/c×C57Bl/6 F1 hybrid mice; details: TCT 10 μg/mouse s.c. footpad 2 hours prior to induction; day 7
From the text: Graft-versus-host disease (GVHD) is a major life-threatening complication of bone marrow transplantation, where T cells from the donor graft attack host cells leading to a condition that is only treatable using potent immunosuppressive drugs. It is possible to examine the potential of therapies for the prevention or treatment of GVHD in humans by testing their efficacy using a simple GVHD model in mice. The parent-to-F1 hybrid GVHD murine model involves the transfer of parental lymphocytes into non-conditioned F1 hybrid mice. Using this strain combination the host T cells cannot actively resist the donor cells.
GVHD was induced by transfer of 0.5×10^7 spleen cells from donor C57BL/6 mice into the footpads of BALB/c×C57Bl/6 F1 hybrid mice. Recipient mice were injected s.c into the footpad with PBS or TCT (10 μg/mouse) 2 hours prior to induction of GVHD. After 7 days, the popliteal lymph nodes were removed, weighed and cell numbers were recorded.

[7] = system: Bone marrow-derived dendritic cells (BMDCs); assay: Cytokine production (ELISA) by BMDCs pre-treated with TCT, then stimulated with TLR agonists; format: cell-based, BALB/c mice; remark: listed apart in the source
Bone marrow-derived DCs = assay: Surface expression of MHC Class II and costimulatory molecules on DCs by immunofluorescence analysis; format: cell-based, BALB/c mice
Description: Bone marrow-derived DCs from BALB/c mice were cultured for 6 hours with (i) TCT (10 μg/ml) or medium alone, then stimulated with B. pertussis LPS at (ii) 10 ng/ml and (iii) 100 ng/ml for a further 12 hours and analysed for surface expression of MHC Class II and costimulatory molecules by immunofluorescence analysis with Abs specific for MHC Class II (a), CD86 (b), and ICAM-1 (c). (FIG. 5).

[8] = TCT 10 μg/ml for 1, 6, 12 hours, Pam-3Csk 10, 100, 1000 ng/ml for 12 hours
[9] = TCT 10 μg/ml pre-treatment (particularly 1 hour), Pam-3Csk, B. pertussis LPS, CpG for 12 hours
[10] = TCT 6 hours before KLH and alum
[11] = TCT 6 hours before KLH only or KLH and alum
[12] = TCT 6 hours before alum adsorbed KLH, day 14
[13] = TCT 6 hours before immunisation KLH

For `CC(=O)NC1C(OC2C3COC(O3)C(NC(C)=O)C2OC(C)C(=O)NC(C)C(=O)NC(CCC(=O)NC(CCCC(N)C(=O)NC(C)C(=O)O)C(=O)O)C(=O)O)OC(CO)C(O)C1O` (stereo not drawn) [TCT, N-acetylglucosaminyl-1,6-anhydro-N-acetylmuramylalanyl-γ-glutamyldiaminopimelylalanine], the “first clinical signs of disease post induction” value ([1]; TCT 10 μg/mouse s.c. day 1 and every 3-4 days, untreated mice 12 days) was 18 days, the severity of disease ([1]; TCT 10 μg/mouse s.c., versus untreated control mice) was “lower than that observed in the untreated control mice” and the “OVA-specific IFN-γ production” value [2] was “did not affect”. The “OVA-specific IL-4 production” value [2] was “significantly reduced”, the “OVA-specific IL-5 production” value [2] was “significantly reduced” and the “OVA-specific IL-13 production” value [2] was “significantly reduced”. The “IL-10 production by B. pertussis LPS” value ([3]; LPS 10,000 pg/ml, TCT pre-treatment 1 and 6 hours) was “significant enhancement”, the “IL-10 production in response to the TLR-9 agonist CpG” value ([3]; TCT 10 μg/ml for 1, 6, 12 hours, CpG 10, 100, 1000 ng/ml for 12 hours) was “enhances” and the “IL-6 production in response to the TLR-4 agonist B. pertussis LPS” value ([3]; TCT 10 μg/ml for 1, 6, 12 hours, LPS 100, 1000, 10000 pg/ml for 12 hours) was “enhances”. For the same molecule, the “IL-6 production in response to the TLR-2 agonist Pam-3Csk” value [3, 8] was “enhances”, the “IL-10 production in response to the TLR-2 agonist Pam-3Csk” value [3, 8] was “enhances” and the “IL-6 production by all the TLR agonists examined” value [3, 9] was “significantly enhanced”. The “IL-10 production by all the TLR agonists examined” value [3, 9] was “significantly enhanced”, the “IL-12p40 production induced by LPS” value ([3]; TCT 10 μg/ml pre-treatment, B. pertussis LPS) was “significantly reduced” and the “IL-12p40 production induced by Pam-3Csk” value ([3]; TCT 10 μg/ml pre-treatment, Pam-3Csk) was “significantly reduced”. The “production of cytokines and chemokines examined” value ([3]; TCT alone (10 μg/ml), no TLR agonist) was “did not induce”, the DNA synthesis [4] was “inhibit DNA synthesis” and the “IFN-gamma production, spleen cells” value [5, 10] was “reduced”. The “IL-4 production, spleen cells” value [5, 10] was “reduced”, the “IL-5 production, spleen cells” value [5, 10] was “reduced” and the “KLH-specific IL-10 production by lymph node cells” value [5, 10] was “severely impaired; also recorded: attenuated”. For the same molecule, the “KLH-specific IL-10 production by spleen cells” value ([5]; TCT 6 hours before KLH and alum, p<0.001) was “significant reduction”, the “antigen-specific IgG1 titres” value [5, 11] was “no significant effect” and the “antigen-specific IgG2a titres” value [5, 11] was “no significant effect”. For the same molecule, the “total KLH-specific IgG production” value [5, 11] was “no significant effect”, the “proliferation response to KLH, lymph node cells” value [5, 12] was “reduction” and the “proliferation response to KLH, spleen cells” value [5, 12] was “reduction”. For the same molecule, the “Antigen-specific IL-5 production, lymph node cells” value [5, 13] was “reduced”, the “antigen-specific IL-4 production, lymph node cells” value [5, 13] was “reduced” and the “IFN-gamma production, spleen cells” value ([5]; TCT before immunisation with KLH and PBS) was “reduced”. The “proliferation response, spleen cells” value ([5]; mice immunised with KLH and PBS) was “reduced”, the “antigen-specific IFN-gamma, lymph node cells” value ([5]; mice immunised with KLH and alum) was “abrogated” and the “total cells counts in the lymph node of the recipient mice” value [6] was “significantly reduced”. The “weight of the lymph node of the recipient mice” value [6] was “significantly reduced”, the “IL-10 production by dendritic cells in synergy with the TLR4 agonist MPL” value [7] was “enhances” and the “B. pertussis LPS induced expression of the other costimulatory molecules (CD86, ICAM-1)” value (Bone marrow-derived DCs; 6 hours TCT pre-treatment) was “did not modulate”. For the same molecule, the “MHC Class II expression induced with B. pertussis LPS” value (Bone marrow-derived DCs; LPS 10 or 100 ng/ml, 6 hours TCT pre-treatment) was “reduced”, the “MHC Class II expression on DCs” value (Bone marrow-derived DCs; TCT (10 μg/ml) alone) was “did not influence” and the “co-stimulatory molecule expression on DCs” value (Bone marrow-derived DCs; TCT (10 μg/ml) alone) was “did not influence”.
